Reference: US20070292908A1, “Method for Detecting Streptococcus Agalactiae Using Alpha-Glucosidase Activity” (BIOMERIEUX, priority 2004, published 2007)

Assays:
[1] = test system: Streptococcus agalactiae; assay: Number of strains detected as a function of the concentration of α-glucosidase substrate; type: cell-based; conditions: positive when I≧0.6, 8 strains
Excerpt: The above protocol was repeated, with the exception that the concentration of enzymatic substrate was varied.
Table 2 below gives the number of strains detected (considered to be positive when I≧0.6) as a function of the concentration of substrate.

[2] = test system: Streptococcus agalactiae; assay: Detection of Streptococcus agalactiae strains on reaction media containing an α-glucosidase enzymatic substrate; type: cell-based; conditions: substrate 0.1 g/l; for intensity (I) of coloration: arbitrary scale 0 to 4
Method: The reaction media were prepared by mixing heart-brain extract (4.84 g/l; Solabia), meat infusion (1.96 g/l; Solabia), biothione (1 g/l; Solabia), biotrypcase (7.2 g/l; Solabia), sodium carbonate (0.3 g/l; VWR), sodium pyruvate (2 g/l; Fluka), HEPES buffer (0.4 g/l; Sigma), lactalbumin peptone (2 g/l; DMV), glucose (1 g/l; Merck), American agar (2 g/l; Sobigel) and European agar (12 g/l; Roko).
The media were then poured into a Petri dish for subsequent inoculation with bacterial strains.
Eight Streptococcus agalactiae strains derived from the applicant's collection, suspended in physiological saline, were inoculated so as to give isolated colonies on each of the media. The dishes were then incubated at 37° C. for 48 hours. The colonies formed are examined visually after 18, 24 and more than 40 hours of incubation. The coloration of these colonies, the growth and also the intensity of this coloration were noted.
The results are given in table 1 below and are expressed: • in terms of growth (G) with the size being indicated in mm, • in terms of intensity (1) of coloration based on an arbitrary scale ranging from 0 to 4, 0 corresponding to an absence of activity and 4 corresponding to the presence of a very intense coloration, • in terms of color (Co) with T=turquoise, R=pink or red, Gr=green, Mg=magenta, • according to the incubation time in hours (T).

## 5-bromo-4-chloro-3-indolyl-N-methyl-α-D-glucopyranoside [GreenA-alpha-Glu]
[1]; substrate 100 mg/l, incubation 24 h
  number of strains detected: 6/8
[1]; substrate 100 mg/l, incubation 48 h
  number of strains detected: 8/8
[1]; substrate 200 mg/l, incubation 24 h
  number of strains detected: 7/8
[1]; substrate 200 mg/l, incubation 48 h
  number of strains detected: 8/8
[1]; substrate 300 mg/l, incubation 24 h
  number of strains detected: 7/8
[1]; substrate 300 mg/l, incubation 48 h
  number of strains detected: 7/8
[2]; strain 0008200, 18 h
  intensity (I) of coloration: 0.5
[2]; strain 0008200, 18 h incubation
  growth (G), size: 0.7 mm
[2]; strain 0008200, 24 h
  intensity (I) of coloration: 0.8
[2]; strain 0008200, 24 h incubation
  growth (G), size: 0.7 mm
[2]; strain 0008200, >40 h
  intensity (I) of coloration: 2
[2]; strain 0008200, >40 h incubation
  growth (G), size: 0.7 mm
[2]; strain 0008206, 18 h
  intensity (I) of coloration: 0.6
[2]; strain 0008206, 18 h incubation
  growth (G), size: 0.7 mm
[2]; strain 0008206, 24 h
  intensity (I) of coloration: 1
[2]; strain 0008206, 24 h incubation
  growth (G), size: 0.7 mm
[2]; strain 0008206, >40 h
  intensity (I) of coloration: 2
[2]; strain 0008206, >40 h incubation
  growth (G), size: 0.8 mm
[2]; strain 0101060, 18 h
  intensity (I) of coloration: 0.8
[2]; strain 0101060, 18 h incubation
  growth (G), size: 0.3 mm
[2]; strain 0101060, 24 h
  intensity (I) of coloration: 1.7
[2]; strain 0101060, 24 h incubation
  growth (G), size: 0.4 mm
[2]; strain 0101060, >40 h
  intensity (I) of coloration: 3.5
[2]; strain 0101060, >40 h incubation
  growth (G), size: 0.5 mm
[2]; strain 7611003, 18 h
  intensity (I) of coloration: 2
[2]; strain 7611003, 18 h incubation
  growth (G), size: 1 mm
[2]; strain 7611003, 24 h
  intensity (I) of coloration: 2
[2]; strain 7611003, 24 h incubation
  growth (G), size: 1.3 mm
[2]; strain 7611003, >40 h
  intensity (I) of coloration: 3
[2]; strain 7611003, >40 h incubation
  growth (G), size: 1.7 mm
[2]; strain 7701031, 18 h incubation
  growth (G), size: 0.5 mm
[2]; strain 7701031, 24 h
  intensity (I) of coloration: 0.3
[2]; strain 7701031, 24 h incubation
  growth (G), size: 0.7 mm
[2]; strain 7701031, >40 h
  intensity (I) of coloration: 0.8
[2]; strain 7701031, >40 h incubation
  growth (G), size: 1.5 mm
[2]; strain 7702055, 18 h
  intensity (I) of coloration: 1
[2]; strain 7702055, 18 h incubation
  growth (G), size: 0.7 mm
[2]; strain 7702055, 24 h
  intensity (I) of coloration: 2
[2]; strain 7702055, 24 h incubation
  growth (G), size: 0.8 mm
[2]; strain 7702055, >40 h
  intensity (I) of coloration: 3
[2]; strain 7702055, >40 h incubation
  growth (G), size: 1.7 mm
[2]; strain 8709013, 18 h
  intensity (I) of coloration: 0.5
[2]; strain 8709013, 18 h incubation
  growth (G), size: 0.4 mm
[2]; strain 8709013, 24 h
  intensity (I) of coloration: 1
[2]; strain 8709013, 24 h incubation
  growth (G), size: 0.5 mm
[2]; strain 8709013, >40 h
  intensity (I) of coloration: 2.7
[2]; strain 8709013, >40 h incubation
  growth (G), size: 0.7 mm
[2]; strain 8904053, 18 h
  intensity (I) of coloration: 0.5
[2]; strain 8904053, 18 h incubation
  growth (G), size: 0.7 mm
[2]; strain 8904053, 24 h
  intensity (I) of coloration: 0.8
[2]; strain 8904053, 24 h incubation
  growth (G), size: 0.7 mm
[2]; strain 8904053, >40 h
  intensity (I) of coloration: 2.3
[2]; strain 8904053, >40 h incubation
  growth (G), size: 1 mm
